{
  "source": "patent US20070027175A1",
  "about": "“Antineoplastic activities of ellipticine and its derivatives” (priority 2005, published 2007)",
  "key": {"[1]": {"test_system": "Fetal bone mesenchymal cells", "test": "Selectivity: viability of normal fetal bone mesenchymal cells (CellTiter-Glo)", "format": "cell-based, human", "conditions": "0.01-1.0 mM; five days", "description": "The cell viability was tested every day for a period of five days. It was observed that these cells were not killed by the concentrations that were otherwise toxic to the myeloma cells.\nFetal bone mesenchymal cells were contacted with NSC 338258 in ninety six well culture plates. The concentrations of NSC 338258 were set at 0.01, 0.03. 0.1, 0.3 and 1.0 mM (FIG. 7)."}, "CAG myeloma cell line": {"test_system": "CAG myeloma cell line", "test": "CellTiter-Glo luminescent cell viability assay, CAG", "format": "cell-based, human", "set-up": "unit of the concentration uncertain", "description": "The dosage of each derivative was set at 2, 0.2 and 0.02 mM. A cell culture medium control and 0.5% DMSO control was maintained in each experiment. The cell viability was tested each day over a period of five days using the CellTiter-Glo luminescent cell viability assay kit from Promega Co.\nCell Titer-Glo luminescent cell viability assay kit from Promega Co (Madison, Wis.) was used to determine cell growth inhibition by the various compounds tested. The kit determines cell viability by quantifying the amount of ATP present in the cell culture medium. Presence of ATP signals the presence of metabolically active cells (3). The intensity of luminescence was measured by a computerized luminometer (Promega, Co. Madison, Wis.). Each well was read five times within 30 minutes of adding Cell Titer-Glo reagent mixture.\nCells were contacted with the antineoplastic agents in ninety six well culture plates. The concentration of each neoplastic agent was maintained a constant. A cell culture medium control and 0.5% DMSO control were maintained in each set of experiments. The cell viability was tested every day using the CellTiter-Glo luminescent cell viability kit from Promega Co. (Madison, Wis.) for a period of five days."}, "[2]": {"test_system": "myeloma cell lines engrafted in SCID mice", "format": "in vivo", "conditions": "25 and 50 mg/kg/day; Alzet osmotic pumps; 28 days; contemplated", "from_the_text": "The present invention also examines novel therapeutic approaches for myeloma using experimental animal models. The anti-myeloma efficacy of 9-(Dimethylaminoethoxy)-ellipticine is examined using a panel of myeloma cell lines engrafted in severe combined immunodeficient (SCID) mice. The 3 cell lines are infected with a lentivirus-containing luciferase. Luciferase-expressing myeloma cells can be traced in live animals using the Xenogen IVIS 200 luminescence imaging system. Six to 8 weeks old SCID mice are subcutaneously injected with 10^7 myeloma cells. Tumor growth in live animals is monitored by measuring circulating level of monoclonal human immunoglobulins (hIg) in mice sera using ELISA (Yaccoby et al., 1998; Yang et al., 2002) and through imaging of tumor cells luminescence intensity. The tumor growth is detected within one week by ELISA and within 1-3 weeks by imaging.\nUpon establishment of myeloma growth as determined by both methods, mice are randomly divided into 3 groups; one control and 2 treated with different doses of 9-(Dimethylaminoethoxy)-ellipticine (8 mice/group for each cell line). Mice are implanted with Alzet osmotic pumps delivering 0.25 μl of drug solution per hour for 28 days. The daily doses are 25 and 50 mg/kg/day. Control animals have pumps loaded with buffer (PBS) only. At the experiments' end, mice are subjected to imaging analysis, bled and sacrificed. […]"}, "8226/Dox1V cells": {"test_system": "8226/Dox1V cells", "test": "Drug resistance and cytotoxicity MTT assay, 8226/Dox1V", "format": "cell-based, human", "description": "FIGS. 13A-13B show dose response of RPMI 8226 and 8226/Dox1V myeloma cells to EPED3 (FIG. 13A) or Dox (FIG. 13B). Cells were incubated for 96 hours with drug concentrations as indicated and analyzed by MTT assays; linear regression analysis was used to determine the IC50 for each drug (EPED3, FIG. 13A; Dox, FIG. 13B) and each cell line (RPMI8226, squares; 8226/Dox1V, circles). Data are presented as the mean of four independent experiments.\nThe 8226/Dox1V cell line was established by chronic exposure to Dox in presence of P-glycoprotein inhibitor, verapamil and was characterized by reduced expression and activity of topo II (Futscher et al., 1993).\nThe 8226/Dox1V and its parental line, RPMI 8226, cells were plated in 96-well plates at 10,000 cells/well and incubated with serial dilutions of EPED3 or Dox, as previously described (Landowski et al., 1999). After 96 hours incubation at 37° C., MTT was added to each well at a final concentration of 20 μg/ml and incubated an additional 4 hours. Plates were centrifuged and the media replaced with 0.1 ml DMSO to solublize the formazan complex. Optical density was measured at 540 nm using a Bio-Tek microplate spectrophotometer. IC50 values were calculated by linear regression analysis (Origins® Software Technologies, Inc.) of the log-linear plot for percent survival versus log drug concentration.\nIn drug resistance studies, the efficacy of EPED3 with 8226/Dox1V cells and the parental line, RPMI 8226 cells was investigated. Both cell lines were treated with either EPED3 or Dox, and the MTT assays were used to assess cell growth. Linear regression analysis of 96-hour dose-response curves was used to compare cytotoxicity of EPED3 in 8226/Dox1V and RPMI 8226 cell lines."}, "myeloma cells": {"test_system": "myeloma cells", "test": "Velcade sensitivity of myeloma cells without and with stromal co-culture", "format": "cell-based, human", "from_the_text": "The bone marrow microenvironment augments myelomagenesis and can protect myeloma cells from destruction when patients undergo systemic and supportive therapies. In vitro, via direct cell-cell adhesion or soluble factors generated by […] interactions, myeloma cells are reportedly well protected from chemotherapeutic agents (Nefedova et al., 2001)."}},
  "data": [
    {"smiles": "Cc1c2ccncc2c(C)c2c1[nH]c1ccc(OCCN(C)C)cc12", "note": "[NSC 338258, ellipticine, 9-dimethyl amino-ethoxy-]", "values": [
      {"measurement": "killing of fetal bone derived normal mesenchymal cells", "setting": "[1]", "value": "not killed"},
      {"measurement": "cell viability (CellTiter-Glo luminescent assay)", "setting": "CAG myeloma cell line; 0.02 (unit uncertain), Day 1", "value": "173,140"},
      {"measurement": "cell viability (CellTiter-Glo luminescent assay)", "setting": "CAG myeloma cell line; 0.02 (unit uncertain), Day 2", "value": "383,737"},
      {"measurement": "cell viability (CellTiter-Glo luminescent assay)", "setting": "CAG myeloma cell line; 0.02 (unit uncertain), Day 3", "value": "780,458"},
      {"measurement": "cell viability (CellTiter-Glo luminescent assay)", "setting": "CAG myeloma cell line; 0.02 (unit uncertain), Day 4", "value": "1,670,491"},
      {"measurement": "cell viability (CellTiter-Glo luminescent assay)", "setting": "CAG myeloma cell line; 0.02 (unit uncertain), Day 5", "value": "3,108,577"},
      {"measurement": "cell viability (CellTiter-Glo luminescent assay)", "setting": "CAG myeloma cell line; 0.2 (unit uncertain), Day 1", "value": "103,658"},
      {"measurement": "cell viability (CellTiter-Glo luminescent assay)", "setting": "CAG myeloma cell line; 0.2 (unit uncertain), Day 2", "value": "105,998"},
      {"measurement": "cell viability (CellTiter-Glo luminescent assay)", "setting": "CAG myeloma cell line; 0.2 (unit uncertain), Day 3", "value": "111,306"},
      {"measurement": "cell viability (CellTiter-Glo luminescent assay)", "setting": "CAG myeloma cell line; 0.2 (unit uncertain), Day 4", "value": "123,316"},
      {"measurement": "cell viability (CellTiter-Glo luminescent assay)", "setting": "CAG myeloma cell line; 0.2 (unit uncertain), Day 5", "value": "64,052"},
      {"measurement": "cell viability (CellTiter-Glo luminescent assay)", "setting": "CAG myeloma cell line; 2 (unit uncertain), Day 1", "value": "76,441"},
      {"measurement": "cell viability (CellTiter-Glo luminescent assay)", "setting": "CAG myeloma cell line; 2 (unit uncertain), Day 2", "value": "39,273"},
      {"measurement": "cell viability (CellTiter-Glo luminescent assay)", "setting": "CAG myeloma cell line; 2 (unit uncertain), Day 3", "value": "23,807"},
      {"measurement": "cell viability (CellTiter-Glo luminescent assay)", "setting": "CAG myeloma cell line; 2 (unit uncertain), Day 4", "value": "19,546"},
      {"measurement": "cell viability (CellTiter-Glo luminescent assay)", "setting": "CAG myeloma cell line; 2 (unit uncertain), Day 5", "value": "5,483"},
      {"measurement": "inhibition of myeloma cell growth in vivo", "setting": "[2]", "value": "effectively inhibits myeloma cell growth in vivo"},
      {"measurement": "IC50", "setting": "8226/Dox1V cells; 8226/Dox1V, 96 hours", "value": 131, "unit": "nM"},
      {"measurement": "resistance of 8226/Dox1V versus parental RPMI 8226", "setting": "8226/Dox1V cells; ratio of IC50, 96 hours", "value": "no significant resistance"}
    ]},
    {"smiles": "CC(C)C[C@H](NC(=O)[C@H](Cc1ccccc1)NC(=O)c1cnccn1)B(O)O", "note": "[Velcade, bortezomib, reference compound]", "values": [
      {"measurement": "effective low dose", "setting": "myeloma cells; absence of stromal cells", "value": 4, "unit": "nM"},
      {"measurement": "reduction in sensitivity", "setting": "myeloma cells; co-culture versus absence of stromal cells, data not shown", "value": "more than 100 fold"},
      {"measurement": "tolerance of myeloma cells to Velcade", "setting": "myeloma cells; co-culture with human fetal bone mesenchymal cells, data not shown", "value": "up to 500 nM"}
    ]}
  ]
}
